Laboratory results: article PMC4644118 (Journal of medicinal chemistry, 2015)

Legend:
[1] = mice; background statement on previous lead; cited from earlier work
[2] = molecular target: rat nNOS (Rattus norvegicus, UniProt P29476); assay: hemoglobin capture assay, purified rat nNOS; assay type: biochemical; conditions: relative to 21

SMILES | oral bioavailability and brain permeation [1] | fold weaker binding to nNOS than 21 [2]
Cl.Cl.Nc1ccc2ccc(CCNCCc3cccc(F)c3)cc2n1 [Compound 1] | good oral bioavailability and brain permeation | 
Cl.Cl.Nc1ccc2ccc(COc3cccnc3)cc2n1 [Compound 11, 7-[(Pyridin-3-yloxy)methyl]quinolin-2-amine Dihydrochloride] |  | ~17 fold
